Laboratory results as given in publication PMC6886798, “Expression of myeloid Src-family kinases is associated with poor prognosis in AML and influences Flt3-ITD kinase inhibitor acquired resistance” (PLoS ONE, 2019).

Assays:
Assay in all cases: KINOMEscan
Assay type in all cases: binding
Conditions in all cases: 1.0 µM
[1] = target: T1, ABL1(H396P)-phosphorylated (Homo sapiens, UniProt P00519, H396P)
T1 construct: purchased Eurofins/DiscoverX KINOMEscan scanMAX
Protocol: (§1) Kinase retention to the immobilized ligand is then measured using quantitative real-time PCR for each kinase-specific DNA barcode.

[2] = target: T2, ADCK4 (Homo sapiens, UniProt Q96D53)
T2 construct: purchased Eurofins/DiscoverX KINOMEscan scanMAX
Protocol: as §1

[3] = target: T3, AKT1 (Homo sapiens, UniProt P31749)
T3 construct: purchased Eurofins/DiscoverX KINOMEscan scanMAX
Protocol: as §1

[4] = target: T4, ALK(L1196M) (Homo sapiens, UniProt Q9UM73, L1196M)
T4 construct: purchased Eurofins/DiscoverX KINOMEscan scanMAX
Protocol: as §1

[5] = target: T5, ASK2 (Homo sapiens, UniProt O95382)
T5 construct: purchased Eurofins/DiscoverX KINOMEscan scanMAX
Protocol: as §1

[6] = target: T6, BRSK1 (Homo sapiens, UniProt Q8TDC3)
T6 construct: purchased Eurofins/DiscoverX KINOMEscan scanMAX
Protocol: as §1

[7] = target: T7, CAMK1 (Homo sapiens, UniProt Q14012)
T7 construct: purchased Eurofins/DiscoverX KINOMEscan scanMAX
Protocol: as §1

[8] = target: T8, CAMKK2 (Homo sapiens, UniProt Q96RR4)
T8 construct: purchased Eurofins/DiscoverX KINOMEscan scanMAX
Protocol: as §1

[9] = target: T9, CDK8 (Homo sapiens, UniProt P49336)
T9 construct: purchased Eurofins/DiscoverX KINOMEscan scanMAX
Protocol: as §1

[10] = target: T10, CSNK2A1 (Homo sapiens, UniProt P68400)
T10 construct: purchased Eurofins/DiscoverX KINOMEscan scanMAX
Protocol: as §1

[11] = target: T11, FAK (Homo sapiens, UniProt Q05397)
T11 construct: purchased Eurofins/DiscoverX KINOMEscan scanMAX
Protocol: as §1

[12] = target: T12, FLT3 (Homo sapiens, UniProt P36888)
T12 construct: purchased Eurofins/DiscoverX KINOMEscan scanMAX
Protocol: as §1

[13] = target: T13, FLT3(D835H) (Homo sapiens, UniProt P36888, D835H)
T13 construct: purchased Eurofins/DiscoverX KINOMEscan scanMAX
Protocol: as §1

[14] = target: T14, GCN2(Kin.Dom.2,S808G) (Homo sapiens, UniProt Q9P2K8, S808G)
T14 construct: GCN2(Kin.Dom.2,S808G); purchased Eurofins/DiscoverX KINOMEscan scanMAX
Protocol: as §1

[15] = target: T15, LKB1 (Homo sapiens, UniProt Q15831)
T15 construct: purchased Eurofins/DiscoverX KINOMEscan scanMAX
Protocol: as §1

[16] = target: T16, MARK1 (Homo sapiens, UniProt Q9P0L2)
T16 construct: purchased Eurofins/DiscoverX KINOMEscan scanMAX
Protocol: as §1

[17] = target: T17, MERTK (Homo sapiens, UniProt Q12866)
T17 construct: purchased Eurofins/DiscoverX KINOMEscan scanMAX
Protocol: as §1

[18] = target: T18, MRCKA (Homo sapiens, UniProt Q5VT25)
T18 construct: purchased Eurofins/DiscoverX KINOMEscan scanMAX
Protocol: as §1

[19] = target: T19, NEK11 (Homo sapiens, UniProt Q8NG66)
T19 construct: purchased Eurofins/DiscoverX KINOMEscan scanMAX
Protocol: as §1

[20] = target: T20, NEK6 (Homo sapiens, UniProt Q9HC98)
T20 construct: purchased Eurofins/DiscoverX KINOMEscan scanMAX
Protocol: as §1

[21] = target: T21, PAK2 (Homo sapiens, UniProt Q13177)
T21 construct: purchased Eurofins/DiscoverX KINOMEscan scanMAX
Protocol: as §1

[22] = target: T22, PAK4 (Homo sapiens, UniProt O96013)
T22 construct: purchased Eurofins/DiscoverX KINOMEscan scanMAX
Protocol: as §1

[23] = target: T23, PCTK2 (Homo sapiens, UniProt Q00537)
T23 construct: purchased Eurofins/DiscoverX KINOMEscan scanMAX
Protocol: as §1

[24] = target: T24, PFPK5(P.falciparum) (Plasmodium falciparum, UniProt P61075)
T24 construct: purchased Eurofins/DiscoverX KINOMEscan scanMAX
Protocol: as §1

[25] = target: T25, PIK3C2G (Homo sapiens, UniProt O75747)
T25 construct: purchased Eurofins/DiscoverX KINOMEscan scanMAX
Protocol: as §1

[26] = target: T26, PIK3CA(Q546K) (Homo sapiens, UniProt P42336, Q546K)
T26 construct: purchased Eurofins/DiscoverX KINOMEscan scanMAX
Protocol: as §1

[27] = target: T27, PLK3 (Homo sapiens, UniProt Q9H4B4)
T27 construct: purchased Eurofins/DiscoverX KINOMEscan scanMAX
Protocol: as §1

[28] = target: T28, PLK4 (Homo sapiens, UniProt O00444)
T28 construct: purchased Eurofins/DiscoverX KINOMEscan scanMAX
Protocol: as §1

[29] = target: T29, PRKCH (Homo sapiens, UniProt P24723)
T29 construct: purchased Eurofins/DiscoverX KINOMEscan scanMAX
Protocol: as §1

[30] = target: T30, RAF1 (Homo sapiens, UniProt P04049)
T30 construct: purchased Eurofins/DiscoverX KINOMEscan scanMAX
Protocol: as §1

[31] = target: T31, RSK4(Kin.Dom.1-N-terminal) (Homo sapiens, UniProt Q9UK32)
T31 construct: RSK4(Kin.Dom.1-N-terminal); purchased Eurofins/DiscoverX KINOMEscan scanMAX
Protocol: as §1

[32] = target: T32, SGK (Homo sapiens, UniProt O00141)
T32 construct: purchased Eurofins/DiscoverX KINOMEscan scanMAX
Protocol: as §1

[33] = target: T33, SNRK (Homo sapiens, UniProt Q9NRH2)
T33 construct: purchased Eurofins/DiscoverX KINOMEscan scanMAX
Protocol: as §1

[34] = target: T34, TAOK3 (Homo sapiens, UniProt Q9H2K8)
T34 construct: purchased Eurofins/DiscoverX KINOMEscan scanMAX
Protocol: as §1

[35] = target: T35, TNIK (Homo sapiens, UniProt Q9UKE5)
T35 construct: purchased Eurofins/DiscoverX KINOMEscan scanMAX
Protocol: as §1

[36] = target: T36, TRKC (Homo sapiens, UniProt Q16288)
T36 construct: DNA tag (qPCR barcode); purchased Eurofins/DiscoverX KINOMEscan scanMAX
Protocol: as §1

[37] = target: T37, TRPM6 (Homo sapiens, UniProt Q9BX84)
T37 construct: DNA tag (qPCR barcode); purchased Eurofins/DiscoverX KINOMEscan scanMAX
Protocol: as §1

[38] = target: T38, TSSK1B (Homo sapiens, UniProt Q9BXA7)
T38 construct: DNA tag (qPCR barcode); purchased Eurofins/DiscoverX KINOMEscan scanMAX
Protocol: as §1

[39] = target: T39, WNK4 (Homo sapiens, UniProt Q96J92)
T39 construct: DNA tag (qPCR barcode); purchased Eurofins/DiscoverX KINOMEscan scanMAX
Protocol: as §1

[40] = target: T40, YES (Homo sapiens, UniProt P07947)
T40 construct: purchased Eurofins/DiscoverX (KINOMEscan scanMAX service)
Protocol: as §1

[41] = target: T41, YSK4 (Homo sapiens, UniProt Q56UN5)
T41 construct: purchased Eurofins/DiscoverX (KINOMEscan scanMAX service)
Protocol: as §1

T32 sequence (O00141 whole entry): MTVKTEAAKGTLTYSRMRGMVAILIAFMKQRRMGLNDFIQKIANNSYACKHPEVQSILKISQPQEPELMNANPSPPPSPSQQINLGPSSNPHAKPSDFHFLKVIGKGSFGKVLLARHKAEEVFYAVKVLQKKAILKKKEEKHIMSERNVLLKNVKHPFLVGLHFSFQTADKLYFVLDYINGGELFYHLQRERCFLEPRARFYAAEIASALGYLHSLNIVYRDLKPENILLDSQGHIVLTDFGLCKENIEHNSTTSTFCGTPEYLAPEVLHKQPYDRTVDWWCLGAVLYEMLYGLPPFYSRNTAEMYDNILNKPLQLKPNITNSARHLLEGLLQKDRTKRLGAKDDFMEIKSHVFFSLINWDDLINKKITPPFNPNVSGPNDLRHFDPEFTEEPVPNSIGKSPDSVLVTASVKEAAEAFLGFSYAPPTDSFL
T14 sequence (Q9P2K8 590-1001 S808G limits assumed): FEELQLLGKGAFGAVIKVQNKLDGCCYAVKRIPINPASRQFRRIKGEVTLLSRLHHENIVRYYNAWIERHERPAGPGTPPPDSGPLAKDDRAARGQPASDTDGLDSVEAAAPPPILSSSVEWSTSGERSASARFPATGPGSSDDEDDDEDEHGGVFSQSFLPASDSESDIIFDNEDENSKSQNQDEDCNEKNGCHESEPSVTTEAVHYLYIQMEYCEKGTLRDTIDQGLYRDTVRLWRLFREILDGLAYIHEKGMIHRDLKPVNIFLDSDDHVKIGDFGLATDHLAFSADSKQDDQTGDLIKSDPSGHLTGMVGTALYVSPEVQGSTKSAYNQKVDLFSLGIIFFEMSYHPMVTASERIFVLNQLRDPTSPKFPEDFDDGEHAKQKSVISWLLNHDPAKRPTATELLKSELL
T24 sequence (P61075 whole entry): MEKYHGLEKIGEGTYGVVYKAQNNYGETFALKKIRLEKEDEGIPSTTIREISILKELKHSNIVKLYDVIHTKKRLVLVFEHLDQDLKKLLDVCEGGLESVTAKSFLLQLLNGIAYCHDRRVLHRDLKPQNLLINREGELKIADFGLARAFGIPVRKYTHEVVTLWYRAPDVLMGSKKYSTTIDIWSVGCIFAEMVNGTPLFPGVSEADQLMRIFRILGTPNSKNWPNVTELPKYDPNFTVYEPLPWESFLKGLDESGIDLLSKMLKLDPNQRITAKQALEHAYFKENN
T36 sequence (Q16288 32-839): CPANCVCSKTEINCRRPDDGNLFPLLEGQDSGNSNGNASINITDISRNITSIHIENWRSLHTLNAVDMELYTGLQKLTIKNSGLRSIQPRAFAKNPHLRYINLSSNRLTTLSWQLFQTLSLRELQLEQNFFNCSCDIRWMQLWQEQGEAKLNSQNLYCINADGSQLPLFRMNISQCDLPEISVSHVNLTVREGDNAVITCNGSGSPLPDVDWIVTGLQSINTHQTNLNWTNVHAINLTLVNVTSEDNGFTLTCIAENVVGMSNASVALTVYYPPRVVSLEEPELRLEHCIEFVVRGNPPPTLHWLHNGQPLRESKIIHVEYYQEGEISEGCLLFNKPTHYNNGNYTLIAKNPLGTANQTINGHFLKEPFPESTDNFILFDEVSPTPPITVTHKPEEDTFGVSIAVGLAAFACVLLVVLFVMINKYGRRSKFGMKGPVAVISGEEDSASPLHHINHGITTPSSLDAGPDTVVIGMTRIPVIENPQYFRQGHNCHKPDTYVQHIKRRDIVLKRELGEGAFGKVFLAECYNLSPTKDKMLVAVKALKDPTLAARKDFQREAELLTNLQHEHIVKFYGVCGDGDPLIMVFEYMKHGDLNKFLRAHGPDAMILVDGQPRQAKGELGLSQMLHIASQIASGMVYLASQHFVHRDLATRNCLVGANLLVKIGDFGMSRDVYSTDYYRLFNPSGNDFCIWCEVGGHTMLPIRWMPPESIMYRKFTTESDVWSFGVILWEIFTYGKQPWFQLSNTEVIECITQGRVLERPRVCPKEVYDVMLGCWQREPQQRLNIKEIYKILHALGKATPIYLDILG
T34 sequence (Q9H2K8 whole entry): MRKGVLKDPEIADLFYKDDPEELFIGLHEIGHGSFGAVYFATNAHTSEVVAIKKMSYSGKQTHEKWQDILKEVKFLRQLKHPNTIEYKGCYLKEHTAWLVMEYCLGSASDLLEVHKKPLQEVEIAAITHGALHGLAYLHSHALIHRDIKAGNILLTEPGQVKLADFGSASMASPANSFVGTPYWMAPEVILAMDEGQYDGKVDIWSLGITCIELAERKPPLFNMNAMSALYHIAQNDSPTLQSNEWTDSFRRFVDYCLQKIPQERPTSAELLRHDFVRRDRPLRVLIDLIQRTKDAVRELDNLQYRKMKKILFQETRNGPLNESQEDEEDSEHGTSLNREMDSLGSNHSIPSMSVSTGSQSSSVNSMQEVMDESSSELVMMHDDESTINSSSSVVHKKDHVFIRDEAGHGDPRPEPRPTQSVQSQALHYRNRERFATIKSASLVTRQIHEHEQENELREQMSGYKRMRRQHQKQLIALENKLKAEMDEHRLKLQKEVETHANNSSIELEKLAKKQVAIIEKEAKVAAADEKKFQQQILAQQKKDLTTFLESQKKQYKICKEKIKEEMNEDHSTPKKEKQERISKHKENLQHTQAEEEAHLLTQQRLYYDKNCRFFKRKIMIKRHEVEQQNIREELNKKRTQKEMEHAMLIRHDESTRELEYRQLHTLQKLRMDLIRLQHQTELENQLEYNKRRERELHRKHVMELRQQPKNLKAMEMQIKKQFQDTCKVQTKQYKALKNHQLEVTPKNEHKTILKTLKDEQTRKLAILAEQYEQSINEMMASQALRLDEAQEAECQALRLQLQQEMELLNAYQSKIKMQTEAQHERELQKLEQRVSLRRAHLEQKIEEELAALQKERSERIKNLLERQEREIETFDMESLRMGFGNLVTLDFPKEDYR
T3 sequence (P31749 whole entry): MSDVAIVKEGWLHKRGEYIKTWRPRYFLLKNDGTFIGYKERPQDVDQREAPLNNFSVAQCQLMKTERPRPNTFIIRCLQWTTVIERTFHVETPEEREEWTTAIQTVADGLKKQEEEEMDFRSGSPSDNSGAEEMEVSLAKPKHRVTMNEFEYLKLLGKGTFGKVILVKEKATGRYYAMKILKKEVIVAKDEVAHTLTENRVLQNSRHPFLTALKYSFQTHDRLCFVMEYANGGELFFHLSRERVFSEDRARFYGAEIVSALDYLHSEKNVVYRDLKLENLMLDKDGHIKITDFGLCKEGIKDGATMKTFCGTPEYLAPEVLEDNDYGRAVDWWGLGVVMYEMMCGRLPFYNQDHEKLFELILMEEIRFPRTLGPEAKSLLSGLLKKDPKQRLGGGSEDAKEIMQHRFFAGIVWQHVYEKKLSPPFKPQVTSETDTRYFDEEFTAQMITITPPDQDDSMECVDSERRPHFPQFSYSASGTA
T27 sequence (Q9H4B4 whole entry): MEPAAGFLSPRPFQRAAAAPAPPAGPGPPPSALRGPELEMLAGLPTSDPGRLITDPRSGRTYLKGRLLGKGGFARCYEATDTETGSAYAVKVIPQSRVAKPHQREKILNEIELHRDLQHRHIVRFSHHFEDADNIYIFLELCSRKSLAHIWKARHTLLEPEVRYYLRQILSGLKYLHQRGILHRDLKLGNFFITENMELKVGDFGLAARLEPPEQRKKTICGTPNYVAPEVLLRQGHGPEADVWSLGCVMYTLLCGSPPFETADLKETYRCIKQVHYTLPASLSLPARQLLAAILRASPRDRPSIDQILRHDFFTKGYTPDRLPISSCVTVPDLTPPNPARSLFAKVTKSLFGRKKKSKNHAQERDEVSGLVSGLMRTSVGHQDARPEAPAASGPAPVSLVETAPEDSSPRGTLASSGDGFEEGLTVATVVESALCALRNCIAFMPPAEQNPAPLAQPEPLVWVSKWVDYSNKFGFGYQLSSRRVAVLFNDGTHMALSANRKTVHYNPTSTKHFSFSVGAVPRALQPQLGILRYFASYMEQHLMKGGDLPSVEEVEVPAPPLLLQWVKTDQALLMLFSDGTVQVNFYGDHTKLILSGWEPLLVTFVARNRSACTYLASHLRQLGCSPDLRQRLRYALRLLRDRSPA
T9 sequence (P49336 whole entry): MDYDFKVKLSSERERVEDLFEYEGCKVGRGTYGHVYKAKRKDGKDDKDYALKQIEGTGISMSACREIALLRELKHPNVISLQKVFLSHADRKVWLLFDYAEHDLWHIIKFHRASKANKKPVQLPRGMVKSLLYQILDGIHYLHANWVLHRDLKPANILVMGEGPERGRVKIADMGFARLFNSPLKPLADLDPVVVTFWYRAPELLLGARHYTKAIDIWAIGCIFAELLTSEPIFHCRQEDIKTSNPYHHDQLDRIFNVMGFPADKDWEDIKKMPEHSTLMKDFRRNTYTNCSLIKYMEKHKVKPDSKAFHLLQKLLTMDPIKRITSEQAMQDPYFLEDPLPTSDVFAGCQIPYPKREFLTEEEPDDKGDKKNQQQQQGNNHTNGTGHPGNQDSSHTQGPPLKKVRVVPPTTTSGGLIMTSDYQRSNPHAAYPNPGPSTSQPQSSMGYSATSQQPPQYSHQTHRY
T20 sequence (Q9HC98 whole entry): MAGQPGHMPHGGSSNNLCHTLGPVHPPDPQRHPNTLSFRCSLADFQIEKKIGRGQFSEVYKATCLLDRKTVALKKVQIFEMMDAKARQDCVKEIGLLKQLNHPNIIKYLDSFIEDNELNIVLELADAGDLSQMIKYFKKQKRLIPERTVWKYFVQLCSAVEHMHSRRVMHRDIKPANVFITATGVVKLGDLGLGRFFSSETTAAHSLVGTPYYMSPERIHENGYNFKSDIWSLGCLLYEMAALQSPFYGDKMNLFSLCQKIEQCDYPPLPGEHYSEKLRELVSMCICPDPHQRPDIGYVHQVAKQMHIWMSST

## CN1CCN(C2CCC(n3cc(-c4ccc(Oc5ccccc5)cc4)c4c(N)ncnc43)CC2)CC1 (centres unmarked) [A-419259]
[1]
  % Control: 0.65%
[2]
  % Control: 100%
[3]
  % Control: 100%
[4]
  % Control: 68%
[5]
  % Control: 62%
[6]
  % Control: 14%
[7]
  % Control: 92%
[8]
  % Control: 100%
[9]
  % Control: 28%
[10]
  % Control: 100%
[11]
  % Control: 72%
[12]
  % Control: 0.65%
[13]
  % Control: 12%
[14]
  % Control: 79%
[15]
  % Control: 100%
[16]
  % Control: 82%
[17]
  % Control: 12%
[18]
  % Control: 98%
[19]
  % Control: 77%
[20]
  % Control: 65%
[21]
  % Control: 91%
[22]
  % Control: 93%
[23]
  % Control: 59%
[24]
  % Control: 78%
[25]
  % Control: 100%
[26]
  % Control: 100%
[27]
  % Control: 72%
[28]
  % Control: 100%
[29]
  % Control: 87%
[30]
  % Control: 40%
[31]
  % Control: 68%
[32]
  % Control: 75%
[33]
  % Control: 94%
[34]
  % Control: 100%
[35]
  % Control: 100%
[36]
  % Control: 45%
[37]
  % Control: 100%
[38]
  % Control: 100%
[39]
  % Control: 39%
[40]
  % Control: 0%
[41]
  % Control: 58%
